Results as given in ChEMBL document CHEMBL1201862, “PubChem BioAssay data set” (2004).
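Each compound was tested at five concentrations against cells in 96-well plates for 48 hours. GI50 marks 50% less growth.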 Active and inactive are the calls of the source. Rule as the data show it: active = GI50 up to about 1.1 µM and inactive = higher.

What was measured:
Test in all cases: NCI anticancer screen, dose series, 48 h
SK-MEL-28 = test system: SK-MEL-28
Hs-578T = test system: Hs-578T
SNB-75 = test system: SNB-75
NCI-H460 = test system: NCI-H460
A549 = test system: A549
PC-3 = test system: PC-3
SK-OV-3 = test system: SK-OV-3
OVCAR-5 = test system: OVCAR-5
MDA-MB-231 = test system: MDA-MB-231
DU-145 = test system: DU-145
MDA-MB-435 = test system: MDA-MB-435
EKVX = test system: EKVX
786-0 = test system: 786-0
MOLT-4 = test system: MOLT-4
HL-60 = test system: HL-60
UACC-257 = test system: UACC-257
HCC 2998 = test system: HCC 2998
MDA-N = test system: MDA-N
CAKI-1 = test system: CAKI-1
SF-295 = test system: SF-295
HT-29 = test system: HT-29
ACHN = test system: ACHN
M14 = test system: M14
UACC-62 = test system: UACC-62
COLO 205 = test system: COLO 205
SNB-19 = test system: SNB-19
SK-MEL-2 = test system: SK-MEL-2
HOP-92 = test system: HOP-92
OVCAR-4 = test system: OVCAR-4
RPMI-8226 = test system: RPMI-8226
U-251 = test system: U-251
UO-31 = test system: UO-31
NCI-H226 = test system: NCI-H226
SK-MEL-5 = test system: SK-MEL-5
NCI/ADR-RES = test system: NCI/ADR-RES
OVCAR-8 = test system: OVCAR-8
K562 = test system: K562
RXF 393 = test system: RXF 393
OVCAR-3 = test system: OVCAR-3
SF-268 = test system: SF-268
CCRF-CEM = test system: CCRF-CEM
HCT-15 = test system: HCT-15
SR = test system: SR
NCI-H522 = test system: NCI-H522
Malme-3M = test system: Malme-3M
T47D = test system: T47D
A498 = test system: A498
MCF7 = test system: MCF7
HCT-116 = test system: HCT-116
KM12 = test system: KM12
LOX IMVI = test system: LOX IMVI
SN12C = test system: SN12C
NCI-H23 = test system: NCI-H23
SF-539 = test system: SF-539
HOP-62 = test system: HOP-62
IGROV-1 = test system: IGROV-1
SW-620 = test system: SW-620
TK-10 = test system: TK-10

Measured: GI50

C/C(=N\NC(=S)N1CCCCC1)c1cccc(C)n1
inactive: Hs-578T 22.3 µM | OVCAR-4 36.5 µM
active: SK-MEL-28 0.0968 µM | SNB-75 0.196 µM | NCI-H460 < 0.0136 µM | A549 0.0325 µM | PC-3 < 0.01 µM | SK-OV-3 < 0.0146 µM | OVCAR-5 0.149 µM | MDA-MB-231 < 0.01 µM | DU-145 0.153 µM | MDA-MB-435 0.0944 µM | EKVX < 0.01 µM | 786-0 < 0.01 µM | MOLT-4 < 0.01 µM | HL-60 < 0.01 µM | UACC-257 < 0.01 µM | HCC 2998 0.082 µM | MDA-N 0.0871 µM | CAKI-1 < 0.01 µM | SF-295 0.056 µM | HT-29 < 0.01 µM | ACHN < 0.012 µM | M14 0.0141 µM | UACC-62 0.0318 µM | COLO 205 < 0.01 µM | SNB-19 < 0.0143 µM | SK-MEL-2 0.515 µM | HOP-92 0.169 µM | RPMI-8226 < 0.01 µM | U-251 < 0.01 µM | UO-31 0.0414 µM | NCI-H226 < 0.01 µM | SK-MEL-5 < 0.0335 µM | NCI/ADR-RES < 0.01 µM | OVCAR-8 < 0.01 µM | K562 < 0.01 µM | RXF 393 0.238 µM | OVCAR-3 < 0.01 µM | SF-268 < 0.0103 µM | CCRF-CEM < 0.0106 µM | SR < 0.0173 µM | NCI-H522 < 0.01 µM | Malme-3M < 0.0197 µM | T47D < 0.01 µM | A498 0.0199 µM | MCF7 < 0.01 µM | HCT-116 < 0.01 µM | KM12 < 0.0221 µM | LOX IMVI < 0.01 µM | SN12C 0.0108 µM | NCI-H23 < 0.01 µM | SF-539 < 0.0404 µM | HOP-62 < 0.01 µM | IGROV-1 < 0.01 µM | SW-620 < 0.01 µM
< 0.01 µM: HCT-15

OCCN(CCO)c1ccc2c(C(F)(F)F)cc(C(F)(F)F)nc2n1
> 86.5 µM: HCT-15
inactive: SK-MEL-28 > 100 µM | Hs-578T > 100 µM | SNB-75 > 100 µM | NCI-H460 > 100 µM | A549 > 77.3 µM | PC-3 > 100 µM | SK-OV-3 > 100 µM | OVCAR-5 > 100 µM | MDA-MB-231 > 100 µM | DU-145 > 100 µM | MDA-MB-435 > 100 µM | EKVX > 100 µM | 786-0 > 100 µM | MOLT-4 > 100 µM | HL-60 > 100 µM | UACC-257 > 100 µM | HCC 2998 > 100 µM | MDA-N > 100 µM | CAKI-1 > 100 µM | SF-295 > 100 µM | HT-29 > 100 µM | ACHN > 100 µM | M14 > 100 µM | UACC-62 > 100 µM | COLO 205 > 100 µM | SNB-19 > 100 µM | SK-MEL-2 > 100 µM | HOP-92 > 100 µM | OVCAR-4 > 100 µM | TK-10 > 100 µM | RPMI-8226 > 100 µM | U-251 > 100 µM | UO-31 > 100 µM | NCI-H226 > 100 µM | SK-MEL-5 95.7 µM | NCI/ADR-RES > 80.4 µM | OVCAR-8 > 77.6 µM | K562 > 100 µM | RXF 393 > 100 µM | OVCAR-3 > 100 µM | SF-268 > 100 µM | CCRF-CEM > 100 µM | SR > 100 µM | NCI-H522 > 100 µM | Malme-3M > 100 µM | T47D > 100 µM | A498 48.5 µM | MCF7 > 100 µM | HCT-116 > 100 µM | KM12 > 100 µM | LOX IMVI > 100 µM | SN12C > 100 µM | NCI-H23 > 100 µM | SF-539 > 100 µM | HOP-62 > 100 µM | IGROV-1 > 100 µM | SW-620 > 100 µM

Clc1ncc(Cl)c(Cl)n1
inactive: SK-MEL-28 3.42 µM | Hs-578T 2.72 µM | SNB-75 2.84 µM | NCI-H460 5.27 µM | A549 12.1 µM | PC-3 2.45 µM | SK-OV-3 4.7 µM | OVCAR-5 19.8 µM | MDA-MB-231 3.03 µM | DU-145 11.8 µM | MDA-MB-435 2.65 µM | EKVX 13.3 µM | 786-0 1.99 µM | MOLT-4 1.5 µM | UACC-257 5.22 µM | HCC 2998 4.21 µM | MDA-N 3.37 µM | CAKI-1 1.86 µM | SF-295 13.2 µM | HT-29 1.36 µM | ACHN 1.92 µM | M14 3.24 µM | UACC-62 1.91 µM | COLO 205 1.72 µM | SNB-19 3.3 µM | SK-MEL-2 2.12 µM | HOP-92 1.81 µM | OVCAR-4 2.08 µM | TK-10 9.55 µM | U-251 4.22 µM | UO-31 3.17 µM | NCI-H226 4.85 µM | SK-MEL-5 5.05 µM | NCI/ADR-RES 3.95 µM | OVCAR-8 3.86 µM | RXF 393 2.05 µM | OVCAR-3 6.5 µM | SF-268 9.12 µM | CCRF-CEM 2.47 µM | SR 1.61 µM | NCI-H522 1.48 µM | Malme-3M 1.88 µM | T47D 2.36 µM | A498 19.1 µM | MCF7 1.59 µM | HCT-116 2.82 µM | KM12 9.14 µM | LOX IMVI 1.17 µM | SN12C 1.73 µM | NCI-H23 15.5 µM | SF-539 8.97 µM | HOP-62 16.5 µM | IGROV-1 9.66 µM | SW-620 1.38 µM
active: HL-60 0.474 µM | RPMI-8226 0.455 µM | K562 0.832 µM
2.24 µM: HCT-15
